What was measured:
[1] = system: 8077S calli; assay type: cell-based, rice
Source text: FIG. 6. Bensulfuron-methyl selection results of Cyp81A6-transformed 8077S calli. Left: transgenic; right: non-transgenic control.
(§1) The full length sequence of candidate gene Cyp81A6 was obtained through lump-sum amplification using LA TaqTM polymerase reagent kit purchased from Takara Company. The long fragment PCR specific primer pairs (forward primer: 5′-[…]-3′ (SEQ ID NO: 40); reverse primer: 5″-[…]-3′ (SEQ ID NO: 41), synthesized by Shanghai Sangon) used in this experiment were designated at a start from 124 bp before and end with 4145 bp after BamHI enzyme digestion site located at 5′-end of Cyp81A6 gene, respectively, according to the DNA sequence publicized by indica rice genome database. According to the designing, these primers have a BstEII enzyme cutting site attached to the 3′-end of the primers, which is convenient for production of cohesive end and ligation during cloning. The amplified fragment with the total size of […] by this pair of primers is consisted of those parts: 124 bp upstream sequence of the BamHI digestion site, 1321 bp promoter sequence, 2321 bp sequence of leader region plus exon plus intron , 272 bp 3′-UTR sequence, followed by 288 bp genome sequence (including the 7 bp BstEII recognition site and 5 bp protection base). […]

[2] = system: Cyp81A6 antisense RNA transformed Minghui 63 plants; test: Bentazon leaf smear test of Cyp81A6 antisense RNA transformed Minghui 63 plants; assay type: in vivo, rice; details: 1250 mg/L smeared on leaves, 3 leaves/plant; antisense transgenic Minghui 63; 36 hours later
Source text: Design anti-sense RNA (RNAi) sequences (see the 1939th to 2439th nucleotide sequence of SEQ ID NO.1) in according with the coding sequence of the cloned rice Cyp81A6 gene. Fuse these antisense RNA (RNAi) sequence to the rice constitutive expression promoter such as Actin1 and then insert them into the binary vectors of pAANT11 (see FIG. 16). Use this vector to transform wild-type rice such as Minghui 63 using the modified procedures of Agrobacterium-mediated transformation method. After that, use the specific primers to carry on the PCR amplification analysis of transgenic TO generation plants for molecular confirmation.

[3] = system: Cyp81A6 transgenic 8077S plants; test: Bentazon test of Cyp81A6 transgenic 8077S seedlings (complementation); assay type: in vivo, rice
Source text: FIG. 7. […] Left: negative control of 8077S; middle: transgenic seedling; right: positive control of W6154S.
as §1

COC(=O)c1ccccc1CS(=O)(=O)NC(=O)Nc1nc(OC)cc(OC)n1 [BSM, bensulfuron-methyl]
growth of non-transgenic calli on herbicide medium [1]: stop to grow

CC(C)N1C(=O)c2ccccc2NS1(=O)=O [bentazon]
outcome of treated leaves and plants [2]: faded and died | response of PCR-positive Cyp81A6 transformants to bentazon ([3]; 1250 mg/l, regenerated transgenic 8077S plantlets): recovered the resistance | resistance of transgenic line carrying the entire CYP81A6 sequence ([3]; 8077S mutant genome transformed with entire CYP81A6 gene): highly resistant

Source: patent US8049063B2 (Zhejiang University, priority 2005, dated 2011)
